In one data set the test system is CTLL-2 cells. As to the kind of experiment: CTLL-2 cell proliferation reactivation assay (CyQUANT). It is filed as cell-based. The following applies: for IC50: CTLL-2 cells with rhPD-L1 chimera, 72 h, n = 3. An excerpt: Next, we investigated the capacity of the compound to reactivate proliferation of CTLL-2 cells. These cytotoxic T cells expressing […] are maintained in a dormant state when they are cultivated in the presence of recombinant hPD-L1; their proliferation, monitored by flow-cytometry (using the CyQuant cell proliferation test), is reactivated when they are exposed to a PD-L1 inhibitor, thus mimicking a reactivation of the immune system. […] The replacement of the Me substituent of compound 2 with an ethyl group abolished the capacity of the product to promote CTLL-2 cell proliferation. The same result was obtained with a compound bearing a […] chain instead of the ethyl chain (not shown).
The CyQUANT cell proliferation kit (Thermofischer, Waltham, MA, USA) was used to evaluate the growth of the CTLL-2 cell line (ATCC). Cells were prepared by growing them in the presence or absence of rhPD-L1 chimera (R&D) plus the test compound, and then transferring them to microplates for assay according to manufacturer’s instructions (Molecular Probes C35011). A cell-based standard curve was first established, with the amount of fluorescence correlated to the quantity of cells in the wells. Cells were incubated with increasing concentrations of compounds, over a period 72 h. Positive (nivolumab) and negative (no rhPD-L1 Fc chimera) controls were performed to calibrate the assay. IC50 were determined for the restoration of proliferation by global curve fitting with Graphpad. Experiments were repeated three times and IC50 values averaged.

The target of data set [1] is T1, recombinant human PD-L1 protein (rhPD-L1) (Homo sapiens, UniProt Q9NZQ7).
T1 construct: purchased R&D Systems 9049-B7-100
Set-up: method as in printed. The note with it: background statement of the introduction, ref not given; cited from earlier work.

A short description of data set [2]: Aldehyde (4-HNE) reactivity by HRMS. The following applies: 180 min, 37 °C, [M–H]-. From the text: Edaravone (1) is a reactive molecule known to form adducts with different aromatic aldehydes, such as formylpterin and vanillin [15, 19]. In aqueous solution, it forms mono- and bis-adducts with the aldehyde compound vanillin [20]. […] Here we have compared the reactivity of compounds 1–5 using another aldehyde with a major biological relevance, 4-hydroxynonenal. 4-HNE is a product of lipid peroxidation implicated in the pathogenesis of diverse human diseases, such as diabetes, aging-related diseases and cancers. […] Edaravone is known to react covalently with 4-HNE to form mono-, bis-, and tris-adducts in solution [25]. We used high-resolution mass spectrometry (HRMS) to monitor the formation of the covalent adducts generated with the phenyl-pyrazolones and 4-HNE after 3 h of incubation at physiological temperature in an aqueous buffer. The formation of mono-, bis-, and tris-adducts was detected unambiguously with each compound (Figure 8). A reaction scheme is represented in Figure 9 for compound 5. In each case, the pyrazolone compound (nucleophile) easily reacted with 4-HNE to generate the different species, each characterized by their corresponding mass (m/z), the ring-double-bond value (rdb, valence values of elements in structure), the signal intensity and the correspondence with the theoretical m/z value (Δppm) (Table 3). The different species can be easily identified, with the isotopic pattern characteristic for the presence of chlorine and carbon atoms (chlorine and carbon cluster isotopes). In all cases, the species formed were identified without any ambiguity from their relative abundances. […] These values were in accordance with the theorical abundances, calculated from the exactive software for the isotopic pattern of the ions from m/z = 489.13606 to m/z = 494.13323.
High resolution mass spectrometry (HRMS) and spectra were recorded with an Exactive Plus mass spectrometer (Thermo Fisher Scientific, San Jose, CA, USA) equipped with a heated electrospray ionisation probe (HESI -II). Each mass analyzer was calibrated with Pierce®ESI positive and negative ion calibration solutions each week (Thermo Fisher Scientific). Optimization of voltages, gas values, and temperatures applied for ion transfer and ionization was performed in negative mode. The tuning parameters were optimized separately with reaction mixture obtained from reaction of nucleophile with the aldehyde. This was completed by infusing first individual solutions of each nucleophile or the aldehyde at 10 pmol/µL. Each reaction mixture was performed during 180 min at 37 °C with the compound at 0.5 mM in phosphate buffer 10 mM, pH = 7.4 and then the reaction mixture was diluted 1/400 in MeOH. The solution was injected with a syringe at a flow rate of 10 µL/min. […]

The nature of data set [3]: EPR spin-trapping assay with DMPO under Fenton conditions. The note with it: for DMPO kr / DMPO kr/ka: DMPO 1 mM; for DMPO kr: methanol, reaction with •OCH3; for DMPO kr/ka: ka (DMPO-•OH) = 4.3 × 10^9 M^−1 s^−1. The procedure: (§1) We used two electron paramagnetic resonance (EPR)-based assays to compare the antioxidant potency of the compounds. The first assay was a free radical scavenging test with 1,1-diphenyl-2-picrylhydrazyl (DPPH) to monitor the decay in the EPR signal intensity in the presence of the diamagnetic hydrazine compound. The intensity of the typical EPR spectrum of DPPH (100 μM) decreases in the presence of increasing concentration of the test compounds (Figure 6). The attenuation of the EPR signal reflects the antioxidant effect, clearly visible with each compound. From the EPR data, the concentration of the compound required to reduce the signal intensity by 50% (EC50) was calculated. […] The second assay relies on the use of the spin-trapping agent DMPO (5,5-dimethyl-1-pyrroline N-oxide) to monitor the formation of an oxygen centered radical generated under Fenton conditions (hydrogen peroxide plus ferrous ions). We used methanol as a solvent, thus leading to a monitoring of the methoxy radical DMPO/^•OCH3 characterized with a typical six-line EPR signal with hyperfine coupling constants aN = 13.9 G and aH = 8.3 G (Figure 7). The decrease in the EPR signal was evaluated with the different compounds to compare their relative antioxidant capacity. […] For each compound, we calculated the reaction constants (kr in Table 2). The antioxidant capacity of compounds 4–5 was reduced compared to edaravone (1). Nevertheless, compound 5 maintains a significant activity, with a kr value reduced by a factor 2.6 compared to the reference product 1. […] The value obtained with EDA is consistent with that given in the literature and thus validates our measurements.
(§2) An X-band Brüker Elexsys E500 spectrometer operating at 9.86 GHz was used to perform CW-EPR experiments. CW-EPR spectra were recorded at room temperature with a microwave power of 5.024–10.02 mW and a modulation amplitude of 1–2 G that considers non-saturation conditions. The free radical scavenging molecule DPPH (1,1-diphenyl-2-picrylhydrazyl) and spin trap agent DMPO (5,5-dimethyl-1-pyrroline N-oxide) were used to monitor the antioxidant activity of the test compounds. The solution mixture (50 μL) was filled into a glass capillary, placed in 4 mm quartz EPR tubes for analysis. The inhibition of DPPH (%) was calculated with the equation: I (%) = ((I0 − I)/I0) × 100 where I0 is the area of the EPR spectrum of DPPH (control sample), and I the area of the DPPH spectrum with antioxidant compound. The rate constant for the reaction of antioxidant compounds with ^•OCH3 is expressed by the equation: 1/Ra = 1/Rf + ((Kr [AH])/(ka [DMPO] Rf)) where Rf, and Ra indicate EPR signal area (double integration of EPR signal) of ^•OCH3, DMPO/^•OCH3, respectively. ka and [DMPO] are constants, and a plot of 1/Ra vs. [AH] (concentration of antioxidant compound) gives a straight line with 1/Rf as an intercept and kr/(ka[DMPO]Rf) as the slope. The rate constant for the reaction of ^•OCH3 with antioxidant compounds (kr) is expressed by the equation: kr = (ka [DMPO] × slope)/− intercept.

The nature of data set [4]: EPR DPPH free radical scavenging assay. The note with it: DPPH 100 µM, compound 2 to 90 µM. The procedure: as §1, §2
A general note: Loss of DPPH colour is used to gauge radical scavenging.

Data set [5] has as its target T2, PD-L1 dimers (His-labeled PD-L1 titrated with unlabeled His-PD-L1) (Homo sapiens, UniProt Q9NZQ7).
T2 construct: purchased Biotechne 9049-B7-100
Description: MST dimerization binding assay. The following applies: test compound 1 µM, labeled His-PD-L1 10 nM. From the text: These observations led us to prioritize compound 5 as a hit compound owing to its potent capacity to bind to PD-L1, to interrupt PD-1/PD-L1 signaling and to reactivate CTLL-2 cell proliferation. Moreover, we selected this compound for an additional reason: its unique capacity to promote dimerization of rhPD-L1. This later property was evidenced using a specific dimerization binding assay which monitors the formation of PD-L1 dimers from a His-labeled PD-L1 protein by MST. The use of a PD-L1 protein with a polyhistidine (6xHis) tag at the C-terminus allows the non-covalent, stable, and selective labeling of the protein with a red fluorescent dye, to facilitate the formation of PD-L1 dimers. […] There is no doubt that this compound is a robust inhibitor of the PD-1/PD-L1 checkpoint.
A labeled His-PD-L1 protein was titrated against an unlabeled His-PD-L1 protein with or without compounds of interest. The test compound (1 µM) and the His-labeled PD-L1 protein (10 nM) are kept constant whereas the unlabeled His-PD-L1 (1 µM) varies with a serial 1:1 ratio of 16 gradients. MST was performed using the same instrument as mentioned above. His-PD-L1 protein (Biotechne # 9049-B7-100) was diluted to 200 nM in commercial PBS-T buffer and was labeled as indicated above. The RED-tris-NTA dye was diluted in PBS-T to 100 nM. The mix was incubated at room temperature in the dark for 30 min. Capillaries were filled individually.

Data set [6] concerns the target T1, recombinant human PD-L1 protein (rhPD-L1). Description: Microscale thermophoresis (MST) binding assay. The note with it: rhPD-L1, n = 3, 1:1 binding model. (In MST a laser heats a spot of the sample, and binding alters the fluorescence response.)
Data set [7] concerns the target T3, interaction between PD-L1 and PD-1 (Homo sapiens, UniProt Q9NZQ7).
T3 construct: expressed in transfected cells; host or cells: CHO-K1
As to the kind of experiment: FRET reporter assay, SHP-2-CFP / PD-1-YFP in CHO-K1 cells activated by rhPD-L1. Type of data set: cell-based. The following applies: CHO-K1 cells co-transfected PD1-SHP2, PD-L1 10 µM, n = 5, read-out: Bioactivity (IC50), block of PD-L1/PD-1 interaction in cells. (Reporter assays use an easily measured gene product as a stand-in for the process of interest.)

Data set [8] in a line: Metabolic stability in mouse liver microsomes. Type of data set: in vitro ADME. From the text:
The metabolic stability of the compounds in mice liver microsomes was investigated using liver microsomes from male mice (BD Gentest™) with propranolol as a positive control, as described previously. Mouse plasma CD-1 was used to investigate the plasma stability of the molecules, with enalapril as a positive control, as described recently.

Another data set in a line: Solubility. It is filed as physicochemical.

T3 sequence (Q9NZQ7 19-239 limits assumed): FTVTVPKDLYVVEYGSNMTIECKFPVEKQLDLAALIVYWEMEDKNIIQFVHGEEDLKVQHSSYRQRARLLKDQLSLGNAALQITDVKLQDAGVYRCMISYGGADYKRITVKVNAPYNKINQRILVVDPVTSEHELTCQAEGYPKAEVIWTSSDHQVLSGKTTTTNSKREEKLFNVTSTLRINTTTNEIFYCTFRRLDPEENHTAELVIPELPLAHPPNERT
T1 sequence (Q9NZQ7 19-239 limits assumed): as above
T2 sequence (Q9NZQ7 19-239 limits assumed): as above

In the data set with CTLL-2 cells, `COc1nc(OCc2cccc(-c3ccccc3)c2C)ccc1CNCCNC(C)=O` [BMS-202, reference compound] gave an IC50 of 53 ± 17 nM.
A word on the EC50: it is the concentration needed to bring the measured effect to its halfway point. The low end stands for greater potency, the high end for weaker potency. In the case of `CC1=NN(c2ccccc2)C(=O)C1` [Compound 1, edaravone, reference compound], the “Binding to PD-L1” value in data set [1] is “does not bind to PD-L1”. Further, the “HRMS intensity of remaining 4-HNE” value in data set [2] was 1.63 × 10^5. In addition, in [3], the DMPO kr is on record as 25.9 10^10 M^−1 s^−1 and the DMPO kr/ka is reported as 60. In [4], this molecule returned a half-maximal effective concentration (EC50) of 35800 nM.
`CC1=NN(c2ccc(Cl)cc2Cl)C(=O)C1` [Compound 2] showed an IC50 in the data set on CTLL-2 cells (Mus musculus, CTLL-2, 72 h) of 53 ± 11 nM. In data set [3], the DMPO kr is on record as 19.3 10^10 M^−1 s^−1 and the DMPO kr/ka is listed as 45. This molecule also had an EC50 in data set [4] of 36500 nM.
The term melting point denotes the temperature, or range, at which the solid turns liquid. In turn, `COc1ccccc1C1=NN(c2ccc(Cl)cc2Cl)C(=O)C1` [Compound 3, 1-(2,4-Dichlorophenyl)-3-(2-methoxyphenyl)-1H-pyrazol-5(4H)-one] displayed a melting point of 188 °C. Besides, the “HRMS intensity of remaining 4-HNE” value in [2] is on record as 1.92 × 10^5. Besides, the IC50 in the data set on CTLL-2 cells came out at 79 ± 7 nM. Moreover, the IC50 in the data set on CTLL-2 cells (Mus musculus, CTLL-2, 72 h) is 70 nM. In addition, a half-maximal effect in [4] (EC50) was put at 34000 nM. Further, the “Promotion of PD-L1 dimerization” value in [5] was “inactive”.
The Kd is the constant that tells how readily two partners part at equilibrium. Take `CCC1=NN(c2ccc(Cl)cc2Cl)C(=O)C1` [Compound 4, 1-(2,4-dichlorophenyl)-3-ethyl-1H-pyrazol-5(4H)-one]: the melting point came to 160 °C. Besides, the dissociation constant Kd in data set [6] amounted to 19 ± 3 nM. The “HRMS intensity of remaining 4-HNE” value in data set [2] is listed as 1.01 × 10^5. Besides, the “Reactivation of CTLL-2 cell proliferation” value in the data set with CTLL-2 cells (CTLL-2 cells with rhPD-L1) is “inactive”. In [3], the DMPO kr is reported as 4.40 10^10 M^−1 s^−1 and the DMPO kr/ka is 10. Besides, in data set [4], the response was half-maximal at 40900 nM (EC50). The “Promotion of PD-L1 dimerization” value in [5] was “inactive”. In addition, the IC50 in data set [7] worked out at 12 ± 5 nM.
Take `Oc1cc(-c2ccccc2F)nn1-c1ccc(Cl)cc1Cl` [Compound 5, 1-(2,4-Dichlorophenyl)-3-(2-fluorophenyl)-1H-pyrazol-5-ol]: the melting point was 229 °C. The Kd in data set [6] is 27 ± 4 nM. Besides, in [2], the “HRMS intensity of remaining 4-HNE” value is listed as 2.11 × 10^5. The IC50 with CTLL-2 cells (Mus musculus, CTLL-2, 72 h) stood at 43 ± 9 nM. Also, in data set [3], the DMPO kr is given as 9.74 10^10 M^−1 s^−1 and the DMPO kr/ka is given as 23. Besides, the “kr value reduced by a factor compared to reference product 1” value in [3] (DMPO assay) is listed as 2.6. In data set [4], this molecule had a half-maximal effective concentration (EC50) of 38200 nM. Also, the “Promotion of PD-L1 dimerization” value in data set [5] is recorded as “promoted the dimerization of PD-L1 in a dose-dependent manner”. In addition, in data set [8], the “Microsomal stability compared to compound 3” value is recorded as “slightly improved”. Further, the IC50 in [7] is 74 ± 7 nM. Besides, the “Solubility compared to compound 3” value in “Solubility” is recorded as “slightly improved”.
As to atezolizumab, the IC50 in [7] was 47 ± 11 nM.

Source of the values: publication PMC10144346, “Novel PD-L1-Targeted Phenyl-Pyrazolone Derivatives with Antioxidant Properties” (Molecules, 2023).
